Assay results taken from patent US20210309658A1, “ARYL COMPOUNDS FOR THE TREATMENT AND PROPHYLAXIS OF BACTERIAL INFECTION” (Hoffmann-La Roche Inc., priority 2018, published 2021).
≈ marks a conversion by molar mass, not a printed value.

Legend:
Format in all cases: cell-based
E. coli (ATCC 25922) = assay: Minimal Inhibitory Concentration (MIC) assay; conditions: Escherichia coli, ATCC25922; CAMHB, 20 hours at 35° C.; read-out: MIC (μg/mL) E. coli ATCC 25922
Description: The in vitro potency of compounds to inhibit E. coli (ATCC 25922) growth was assessed by MIC (Minimal Inhibitory Concentration) assay. Samples were prepared from 10 mM DMSO stock solutions. After serial 2-fold dilution in DMSO in a master plate (Greiner, Cat No: 651201), 180 μL sterile distilled water was added to 20 μL each aliquot of the samples. Then 10 μL diluted compounds were transferred into a new assay plate (Costar, 3599).
The growth medium […] Mueller Hinton Broth (CAMHB) was prepared by adding the 20 mg per liter CaCl2 and 20 mg per liter MgCl2 into the MHB medium (Jianglai Company, sterilized).
Vials of each of the test microorganisms were maintained frozen in the vapor phase of a liquid nitrogen freezer. Took out the bacteria E. coli ATCC 25922 (KWIKSTIK, 0335K) from liquid nitrogen freezer, thawed it in room temperature, and diluted the bacterial in the CAMHB medium to achieve a final inoculum of 5×10^5 CFU/mL, 90 μL CAMHB with bacteria was dispensed to the assay plate and pipetted 5 times.
Then the assay plates were incubated for 20 hours at 35° C. in ambient air. Following incubation, the MIC (μg/mL), the lowest concentration of drug that inhibits visible growth of the microorganism was read and recorded throw the microscope.

[1] = system: K. pneumoniae (ATCC10031); assay: 50% growth inhibitory concentration (IC50) determination assay, K. pneumoniae; conditions: Klebsiella pneumoniae, ATCC10031; growth inhibition, Iso-Sensitest broth, OD 600 nm over 16 h; * = detection limit; read-out: IC50 (μM) K. pneumoniae ATCC10031
Description: (§1) The in vitro antimicrobial activity of the compounds against E. coli (BW25113, obtained from Coli Genetic Stock Center, #7636) and K. pneumoniae (ATCC10031) was determined according to the following procedure:
(§2) The assay used a 10-points Iso-Sensitest broth medium to measure quantitatively the in vitro activity of the compounds against E. coli BW25113 and K. pneumoniae ATCC 10031.
(§3) Stock compounds in DMSO were serially two-fold diluted (range from 50 to 0.097 μM final concentration) in 384 wells microtiter plates and inoculated with 49 μL the bacterial suspension in Iso-Sensitest broth medium to have a final cell concentration of ˜5×10^5 CFU/mL in a final volume/well of 50 μL/well. Microtiter plates were incubated at 35±2° C.
(§4) Bacterial cell growth was determined with the measurement of optical density at λ=600 nm each 20 minutes over a time course of 16 h.
(§5) Growth inhibition was calculated during the logarithmic growth of the bacterial cells with determination of the concentration inhibiting 50% (IC50) of the growth.

E. coli (BW25113) = assay: 50% growth inhibitory concentration (IC50) determination assay, E. coli; conditions: Escherichia coli, BW25113; growth inhibition, Iso-Sensitest broth, OD 600 nm over 16 h; read-out: IC50 (μM) E. coli K12 BW25113
Description: as §1, §2, §3, §4, §5

[2] = Cytotoxicity assay (HepG2, CellTiter-Blue); conditions: human; HepG2 cells, 3 days treatment; * = detection limit
Description: The cytotoxicity of compounds of present invention was assessed by HepG2 assay. HepG2 cells (ATCC HB-8065™) were seeded into 96-well plates (1.2×10^4 cells per well) and treated with compounds for 3 days, cell viability was measured at day 3 post compound treatment using the CellTiter-Blue® Cell Viability Assay (Promega, Cat. No. G8082). 20 μL of Cell titer blue buffer were added to each well of the cells, incubated for 3 hours at 37° C., and the fluorescence value was measured by a plate reader (Molecular Device SpectraMax M2). The CC50 value of each compound is plotted with GraphPad Prism using four parameter logistic equation.

SMILES: CNc1cc(F)cc2c1[nH]c1ncc(-c3cncc(C#N)c3)c(-n3cc(C#N)cn3)c12 [Example 1.09, 5-[4-(4-Cyanopyrazol-1-yl)-6-fluoro-8-(methylamino)-9H-pyrido[2,3-b]indol-3-yl]pyridine-3-carbonitrile]
- MIC (E. coli (ATCC 25922)): 0.153 µg/mL (≈ 0.375 µM)
- IC50 [1]: ≤ 0.098 µM
- IC50 (E. coli (BW25113)): 0.346 µM
- CC50 at 3 days [2]: 14.6 µM

SMILES: CCNc1cc(F)cc2c1[nH]c1ncc(-c3cncnc3)c(-n3ccc(C(F)(F)F)n3)c12 [Example 1.12, N-Ethyl-6-fluoro-3-pyrimidin-5-yl-4-[3-(trifluoromethyl)pyrazol-1-yl]-9H-pyrido[2,3-b]indol-8-amine]
- MIC (E. coli (ATCC 25922)): 0.259 µg/mL (≈ 0.587 µM)
- IC50 [1]: ≤ 0.098 µM
- IC50 (E. coli (BW25113)): 0.536 µM

SMILES: CNc1cc(F)cc2c1[nH]c1ncc(-c3cncc(C#N)c3)c(-n3cc(CN)c(C(F)(F)F)n3)c12 [Example 1.14, 5-[4-[4-(Aminomethyl)-3-(trifluoromethyl)pyrazol-1-yl]-6-fluoro-8-(methylamino)-9H-pyrido[2,3-b]indol-3-yl]pyridine-3-carbonitrile]
- CC50 at 3 days [2]: 13.3 µM

SMILES: CCNc1cc(F)cc2c1[nH]c1ncc(-c3cncc(C(N)=O)c3)c(-n3ccc(C(F)(F)F)n3)c12 [Example 1.15, 5-[8-(Ethylamino)-6-fluoro-4-[3-(trifluoromethyl)pyrazol-1-yl]-9H-pyrido[2,3-b]indol-3-yl]pyridine-3-carboxamide]
- MIC (E. coli (ATCC 25922)): 0.142 µg/mL (≈ 0.294 µM)
- IC50 [1]: ≤ 0.098 µM
- IC50 (E. coli (BW25113)): 0.289 µM

SMILES: CCNc1cc(F)cc2c1[nH]c1ncc(-c3cnc4ccnn4c3)c(-n3ccc(C(F)(F)F)n3)c12 [Example 1.19, N-Ethyl-6-fluoro-3-pyrazolo[1,5-a]pyrimidin-6-yl-4-[3-(trifluoromethyl)pyrazol-1-yl]-9H-pyrido[2,3-b]indol-8-amine]
- MIC (E. coli (ATCC 25922)): 0.281 µg/mL (≈ 0.585 µM)
- IC50 [1]: 0.196 µM
- IC50 (E. coli (BW25113)): 0.739 µM

SMILES: CCNc1cc(F)cc2c1[nH]c1ncc(-c3cnc(OC)nc3)c(-n3ncc4c3CNC4)c12 [Example 1.21, 4-(5,6-Dihydro-4H-pyrrolo[3,4-c]pyrazol-1-yl)-N-ethyl-6-fluoro-3-(2-methoxypyrimidin-5-yl)-9H-pyrido[2,3-b]indol-8-amine]
- CC50 at 3 days [2]: 30.5 µM

SMILES: CCNc1cc(F)cc2c1[nH]c1ncc(-c3cnc(OC)nc3)c(-n3cc(CN)c(C(F)(F)F)n3)c12 [Example 1.27, 4-[4-(Aminomethyl)-3-(trifluoromethyl)pyrazol-1-yl]-N-ethyl-6-fluoro-3-(2-methoxypyrimidin-5-yl)-9H-pyrido[2,3-b]indol-8-amine]
- MIC (E. coli (ATCC 25922)): 0.417 µg/mL (≈ 0.833 µM)
- IC50 [1]: ≤ 0.098 µM
- IC50 (E. coli (BW25113)): 0.462 µM

SMILES: CCNc1cc(F)c(F)c2c1[nH]c1ncc(-c3cncc(C#N)c3)c(-n3ccc(C(F)(F)F)n3)c12 [Example 1.28, 5-[8-(Ethylamino)-5,6-difluoro-4-[3-(trifluoromethyl)pyrazol-1-yl]-9H-pyrido[2,3-b]indol-3-yl]pyridine-3-carbonitrile]
- MIC (E. coli (ATCC 25922)): 0.7 µg/mL (≈ 1.45 µM)
- IC50 [1]: 0.199 µM
- IC50 (E. coli (BW25113)): 0.8 µM

SMILES: CCNc1cc(F)c(F)c2c1[nH]c1ncc(-c3cnc(OC)nc3)c(-n3ccc(C(F)(F)F)n3)c12 [Example 1.29, N-Ethyl-5,6-difluoro-3-(2-methoxypyrimidin-5-yl)-4-[3-(trifluoromethyl)pyrazol-1-yl]-9H-pyrido[2,3-b]indol-8-amine]
- MIC (E. coli (ATCC 25922)): 0.354 µg/mL (≈ 0.723 µM)
- IC50 [1]: 0.175 µM
- IC50 (E. coli (BW25113)): 1.05 µM

SMILES: CCNc1cc(F)cc2c1[nH]c1ncc(-c3cncc(C#N)c3)c(-n3nc(C(F)(F)F)c4c3CNC4)c12 [Example 1.34, 5-[8-(Ethylamino)-6-fluoro-4-[3-(trifluoromethyl)-5,6-dihydro-4H-pyrrolo[3,4-c]pyrazol-1-yl]-9H-pyrido[2,3-b]indol-3-yl]pyridine-3-carbonitrile]
- MIC (E. coli (ATCC 25922)): 0.727 µg/mL (≈ 1.44 µM)
- IC50 [1]: ≤ 0.098 µM
- IC50 (E. coli (BW25113)): 2 µM
- CC50 at 3 days [2]: 14.1 µM

SMILES: CCNc1cc(F)cc2c1[nH]c1ncc(-c3cnc(OC)nc3)c(-n3nc(C(F)(F)F)c4c3CNC4)c12 [Example 1.35, N-Ethyl-6-fluoro-3-(2-methoxypyrimidin-5-yl)-4-[3-(trifluoromethyl)-5,6-dihydro-4H-pyrrolo[3,4-c]pyrazol-1-yl]-9H-pyrido[2,3-b]indol-8-amine]
- MIC (E. coli (ATCC 25922)): 0.601 µg/mL (≈ 1.17 µM)
- CC50 at 3 days [2]: 58 µM

SMILES: CCNc1cc(F)cc2c1[nH]c1ncc(-c3cncc(N)c3)c(-n3ccc(C(F)(F)F)n3)c12 [Example 1.37, 3-(5-Amino-3-pyridyl)-N-ethyl-6-fluoro-4-[3-(trifluoromethyl)pyrazol-1-yl]-9H-pyrido[2,3-b]indol-8-amine]
- IC50 [1]: ≤ 0.098 µM
- IC50 (E. coli (BW25113)): 1.32 µM
- CC50 at 3 days [2]: 11.1 µM

SMILES: CNc1cc(F)cc2c1[nH]c1ncc(-c3cnc(OC)nc3)c(-n3nc(C#N)c4c3CNC4)c12 [Example 1.38, 1-[6-Fluoro-3-(2-methoxypyrimidin-5-yl)-8-(methylamino)-9H-pyrido[2,3-b]indol-4-yl]-5,6-dihydro-4H-pyrrolo[3,4-c]pyrazole-3-carbonitrile]
- CC50 at 3 days [2]: 11 µM

SMILES: CCNc1cc(F)cc2c1[nH]c1ncc(-c3cncc(C(=O)NC)c3)c(-n3ccc(C(F)(F)F)n3)c12 [Example 1.43, 5-[8-(Ethylamino)-6-fluoro-4-[3-(trifluoromethyl)pyrazol-1-yl]-9H-pyrido[2,3-b]indol-3-yl]-N-methyl-pyridine-3-carboxamide]
- IC50 [1]: ≤ 0.098 µM
- IC50 (E. coli (BW25113)): 0.796 µM
- CC50 at 3 days [2]: 11.1 µM

SMILES: CCNc1cc(F)cc2c1[nH]c1ncc(-c3cnc(C)nc3)c(-n3ccc(C(F)(F)F)n3)c12 [Example 1.50]
- MIC (E. coli (ATCC 25922)): 0.534 µg/mL (≈ 1.17 µM)
- IC50 [1]: 0.098 µM
- IC50 (E. coli (BW25113)): 0.422 µM

SMILES: CCNc1cc(F)cc2c1[nH]c1ncc(-c3cnc(C(C)O)nc3)c(-n3ccc(C(F)(F)F)n3)c12 (centres unmarked) [Example 1.54, 1-[5-[8-(ethylamino)-6-fluoro-4-[3-(trifluoromethyl)pyrazol-1-yl]-9H-pyrido[2,3-b]indol-3-yl]pyrimidin-2-yl]ethanol]
- MIC (E. coli (ATCC 25922)): 0.284 µg/mL (≈ 0.585 µM)
- IC50 [1]: 0.111 µM
- IC50 (E. coli (BW25113)): 1.12 µM
- CC50 at 3 days [2]: 12.4 µM

SMILES: CCNc1cc(F)cc2c1[nH]c1ncc(-c3cnc([C@H](C)O)nc3)c(-n3ccc(C(F)(F)F)n3)c12 [Example 1.57, (1S)-1-[5-[8-(ethylamino)-6-fluoro-4-[3-(trifluoromethyl)pyrazol-1-yl]-9H-pyrido[2,3-b]indol-3-yl]pyrimidin-2-yl]ethanol]
- MIC (E. coli (ATCC 25922)): 0.284 µg/mL (≈ 0.585 µM)
- IC50 [1]: ≤ 0.098 µM
- IC50 (E. coli (BW25113)): 0.631 µM

SMILES: CCNc1cc(F)cc2c1[nH]c1ncc(-c3cnc(OCC(C)(C)C(=O)O)nc3)c(-n3ccc(C(F)(F)F)n3)c12 [Example 2.03, 3-[5-[8-(Ethylamino)-6-fluoro-4-[3-(trifluoromethyl)pyrazol-1-yl]-9H-pyrido[2,3-b]indol-3-yl]pyrimidin-2-yl]oxy-2,2-dimethyl-propanoic acid]
- MIC (E. coli (ATCC 25922)): 0.653 µg/mL (≈ 1.17 µM)
- CC50 at 3 days [2]: 20.7 µM

SMILES: CCNc1cc(F)cc2c1[nH]c1ncc(-c3cncc(C(=O)NOC)c3)c(-n3ccc(C(F)(F)F)n3)c12 [Example 3.03, 5-[8-(Ethylamino)-6-fluoro-4-[3-(trifluoromethyl)pyrazol-1-yl]-9H-pyrido[2,3-b]indol-3-yl]-N-methoxy-pyridine-3-carboxamide]
- IC50 [1]: ≤ 0.098 µM
- IC50 (E. coli (BW25113)): 0.775 µM
- CC50 at 3 days [2]: 13 µM

SMILES: CCNc1cc(F)cc2c1[nH]c1ncc(-c3cnc(C(N)=O)nc3)c(-n3ccc(C(F)(F)F)n3)c12 [Example 3.04, 5-[8-(Ethylamino)-6-fluoro-4-[3-(trifluoromethyl)pyrazol-1-yl]-9H-pyrido[2,3-b]indol-3-yl]pyrimidine-2-carboxamide]
- MIC (E. coli (ATCC 25922)): 0.142 µg/mL (≈ 0.293 µM)
- IC50 [1]: ≤ 0.098 µM
- IC50 (E. coli (BW25113)): 0.204 µM
- CC50 at 3 days [2]: 20.9 µM

SMILES: CCNc1cc(F)cc2c1[nH]c1ncc(-c3cncc(C(=O)NCCOC)c3)c(-n3ccc(C(F)(F)F)n3)c12 [Example 3.06, 5-[8-(ethylamino)-6-fluoro-4-[3-(trifluoromethyl)pyrazol-1-yl]-9H-pyrido[2,3-b]indol-3-yl]-N-(2-methoxyethyl)pyridine-3-carboxamide]
- MIC (E. coli (ATCC 25922)): 0.734 µg/mL (≈ 1.36 µM)
- IC50 [1]: ≤ 0.098 µM
- IC50 (E. coli (BW25113)): 1.45 µM
